Data: the supplement of paper PMC10307832

Columns and labels:
Assay in all cases: relative viability (nuclei count vs DMSO), 5 days (fraction); higher = more cells survive
Obatoclax + Trametinib = compound: COC1=CC(c2cc3ccccc3[nH]2)=N/C1=C\c1[nH]c(C)cc1C [Obatoclax] + CC(=O)Nc1cccc(-n2c(=O)n(C3CC3)c(=O)c3c(Nc4ccc(I)cc4F)n(C)c(=O)c(C)c32)c1 [Trametinib] (partner 0.02 µM)
Summary of the method: (§1)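 Values are medians from duplicate plates. Each reflects relative viability, defined as the nuclei count of treated wells over that of vehicle wells. Lung cancer cell lines in 1536-well plates were pin-tool dosed one day after seeding with one drug alone or with a fixed anchor-drug dose plus five library-drug doses (not always all listed) in √10 steps, then fixed, stained and imaged at 4× after 5 days.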

[1] = compound: CC1=CC(=NN1)NC2=CC(=NC(=N2)/C=C/C3=CC=CC=C3)N4CCN(CC4)C + O=C(CCCCCCC(=O)Nc1ccccc1)NO [Vorinostat] (partner 1 µM)
Summary of the method: as §1

Obatoclax + Olaparib = compound: COC1=CC(c2cc3ccccc3[nH]2)=N/C1=C\c1[nH]c(C)cc1C [Obatoclax] + O=C(c1cc(Cc2n[nH]c(=O)c3ccccc23)ccc1F)N1CCN(C(=O)C2CC2)CC1 [Olaparib] (partner 8 µM)
Summary of the method: as §1

Obatoclax + Dasatinib = compound: COC1=CC(c2cc3ccccc3[nH]2)=N/C1=C\c1[nH]c(C)cc1C [Obatoclax] + Cc1nc(Nc2ncc(C(=O)Nc3c(C)cccc3Cl)s2)cc(N2CCN(CCO)CC2)n1 [Dasatinib] (partner 0.075 µM)
Summary of the method: as §1

Cell Line | relative viability (Obatoclax + Trametinib; first compound 0.01 µM) | relative viability (Obatoclax + Trametinib; first compound 0.03162 µM) | relative viability (Obatoclax + Trametinib; first compound 0.1 µM) | relative viability (Obatoclax + Trametinib; first compound 0.3162 µM) | relative viability (Obatoclax + Trametinib; first compound 1 µM) | relative viability ([1]; first compound 0.08 µM) | relative viability ([1]; first compound 0.253 µM) | relative viability ([1]; first compound 0.8 µM) | relative viability ([1]; first compound 2.53 µM) | relative viability ([1]; first compound 8 µM) | relative viability (Obatoclax + Olaparib; first compound 0.01 µM) | relative viability (Obatoclax + Olaparib; first compound 0.03162 µM) | relative viability (Obatoclax + Olaparib; first compound 0.1 µM) | relative viability (Obatoclax + Olaparib; first compound 0.3162 µM) | relative viability (Obatoclax + Olaparib; first compound 1 µM) | relative viability (Obatoclax + Dasatinib; first compound 0.01 µM) | relative viability (Obatoclax + Dasatinib; first compound 0.03162 µM) | relative viability (Obatoclax + Dasatinib; first compound 0.1 µM) | relative viability (Obatoclax + Dasatinib; first compound 0.3162 µM) | relative viability (Obatoclax + Dasatinib; first compound 1 µM)
NCI-H2170 | 0.877 | 0.942 | 0.904 | 0.856 | 0.861 | 0.867 | 0.921 | 0.65 | 0.211 | 0.153 | 0.574 | 0.607 | 0.574 | 0.585 | 0.655 | 0.626 | 0.617 | 0.528 | 0.529 | 0.677
NCI-H2126 | 0.57 | 0.493 | 0.526 | 0.55 | 0.546 | 0.816 | 0.82 | 0.834 | 0.674 | 0.202 | 0.872 | 0.851 | 0.903 | 0.865 | 0.918 | 0.675 | 0.538 | 0.524 | 0.613 | 0.536
EPLC-272H | 0.306 | 0.301 | 0.352 | 0.252 | 0.301 | 0.472 | 0.488 | 0.401 | 0.141 | 0.0816 | 0.796 | 0.889 | 0.756 | 0.263 | 0.215 | 0.36 | 0.31 | 0.342 | 0.264 | 0.147
NCI-H1975 | 0.407 | 0.32 | 0.213 | 0.352 | 0.206 | 0.663 | 0.733 | 0.536 | 0.187 | 0.128 | 0.78 | 0.695 | 0.746 | 0.744 | 0.288 | 0.439 | 0.389 | – | 0.351 | 0.153
NCI-H3122 | 0.251 | 0.215 | 0.241 | 0.205 | 0.212 | 1.03 | 0.977 | 0.989 | 0.879 | 0.511 | 0.655 | 0.517 | 0.642 | 0.613 | 0.678 | 0.925 | 0.843 | 0.798 | 0.674 | 0.766
COR-L 105 | 0.44 | 0.434 | 0.493 | 0.4 | 0.373 | 0.818 | 0.762 | 0.753 | 0.47 | 0.262 | 0.727 | 0.76 | 0.737 | 0.672 | 0.457 | 0.4 | 0.358 | 0.372 | 0.265 | 0.246
BEN | 1.01 | 1.01 | 0.861 | 0.944 | 1.03 | 0.544 | 0.53 | 0.563 | 0.47 | 0.334 | 1.03 | 1.04 | 0.864 | 0.914 | 0.942 | 0.321 | 0.312 | – | 0.41 | 0.272
NCI-H1915 | 0.296 | 0.285 | 0.328 | 0.284 | 0.315 | 0.493 | 0.584 | 0.467 | 0.376 | 0.116 | 0.269 | 0.256 | 0.252 | 0.257 | 0.247 | 0.314 | 0.271 | 0.318 | 0.329 | 0.282
